# Laboratory results reported in patent US8609718B2, “Pharmaceutical composition used in treatment of hyperproliferative skin conditions and malignant melanomas comprising pachastrissamine as active ingredient” (Catholic University Industry Academy Cooperation Foundation, priority 2009, dated 2013).
# Key:
# HaCaT cell = experiment: Phase-contrast microscope morphology analysis of surviving cells; assay type: cell-based, human; settings: HaCaT, 24 hours
# Experimental: HaCaT, B16F10 and A375 cell lines were cultured in the same manner as described in Example 1. The cultured HaCaT cell line was plated onto a 60 mm plate at a concentration of 5×10^4 cells/well, and cultured in a CO2 incubator (37° C., 5%) for 24 hours. The cultured respective cells were divided into 4 groups. One group was added with only pachastrissamine (PA) at a concentration of 10 μg/ml; another group was added with lithium chloride (apoptosis inhibiting material) (at a final concentration of 300 nM) as well as pachastrissamine at a concentration of 10 μg/ml (PA+Li); and a third group was added with only lithium chloride (Li). The last group was a negative control group (Con) and was added with nothing. These groups were cultured in a CO2 incubator (37° C., 5%) for 24 hours, and then the number of cells were measured in the same manner as described in Example 2-2.
# The four groups of HaCaT cell samples were washed with PBS, and then surviving cells were subjected to morphology analysis through a phase-contrast microscope (see FIG. 2f).
# HaCaT cell line = experiment: TUNEL analysis of apoptosis; assay type: cell-based, human; settings: 10 μg/ml, 24 hours, control: only a limited part, FIG. 2E
# Experimental: A HaCaT cell line was cultured in the same manner as described in Example 1. The cultured HaCaT cell line was plated onto a 60 mm plate at a concentration of 5×10^4 cells/well, and cultured in a CO2 incubator (37° C., 5%) for 24 hours. The cultured cells were treated with pachastrissamine at a concentration of 10 μg/ml, cultured in a CO2 incubator (37° C., 5%) for 24 hours, and subjected to TUNEL analysis.
# In order to carry out TUNEL analysis based on ApopTagFluorescein In Situ Apoptosis Detection Kit (Millipore), cells were cultured in a cover slip, and washed with PBS (pH 7.4). In order to completely fix cells, the cells were reacted in a PBS solution including 4% paraformaldehyde at room temperature for 30 minutes. Then, in order to make the cells permeable, the cells were washed with a PBS solution, and reacted in a PBS solution including 0.1% Triton X-100 at room temperature for 5 minutes. For cell marking, the cells were washed with PBS twice, and then diluted TUNEL reaction mixture was added to the cover slip. After incubating in a humidified chamber at 37° C. for 60 minutes, the cover slip was washed. The washed cover slip was reacted with a DAPI solution at room temperature for about 10 minutes, washed with PBS, mounted on a slide, sufficiently dried in a dark place, and analyzed by a fluorescent microscope. […]
# AKT = experiment: Western blotting of AKT phosphorylation; assay type: cell-based; settings: HaCaT, B16F10, A375, 10 μg/ml pachastrissamine, FIGS. 3A, 3B
# Experimental: HaCaT, B16F10 and A375 cell lines were cultured in the same manner as described in Example 1. […] 30 minutes later, and 60 minutes later, each of the cell lines was resuspended in RIPA buffer [12 mM EDTA, 137 mM NaCl, 20 mM Tris-HCl (pH 8.0), 1 mM Na3VO4 (Sigma-Aldrich, USA) 10 mM NaF (Sigma), 1 mM PMSF (Sigma), 1% Triton X-100, 10% glycerol, protease inhibiting cocktail (Roche, Germany)], and then put on ice for 30 minutes so that the cells can be completely lysed. The lysate was centrifuged at 14000 rpm for 30 minutes, and the supernatant was collected. A BCA protein analysis kit (Pierce, Rockford, Ill.) was used to determine the concentration of each sample, and the sample was subjected to electrophoresis (SDS-PAGE). Western blotting was carried out on the protein isolated by the electrophoresis. After electrophoresis of the sample, the protein was transferred to a polyvinylidene fluoride membrane (Pall Corporation). Then, after blocking the membrane at room temperature for one hour using 5% BSA solution (Amresco, USA), it was treated with primary antibodies and reaction was carried out for 12 hours at 4° C. The primary antibodies were AKT antibody and Actin antibody (Cell Signaling Technology, Beverly, Mass.), which are antibodies associated in cell proliferation-related signaling. After reaction with primary antibodies, it was washed for about 30 minutes and further reacted for 1 hour at room temperature by treating with HRP-conjugated secondary antibodies. Then, after washing sufficiently for over 30 minutes, protein was identified using an ECL detection kit (intron Biotechnology).
# FoxO3a [1] = experiment: Western blotting of FoxO3a protein expression in HaCaT; assay type: cell-based, human
# Experimental: A HaCaT cell line was cultured in the same manner as described in Example 1. […] Then, western blotting was carried out by using FoxO3a antibody as a primary antibody.
# Then, western blotting was carried out by using FoxO3a antibody as a primary antibody so as to carry out comparative analysis on the level of protein expression.
# FoxO3a [2] = experiment: FoxO3a immunoprecipitation and ubiquitin western blotting in HEK293T; assay type: cell-based; settings: pachastrissamine and EGF
# Experimental: Then, immunoprecipitation was carried out using FoxO3a antibody. The sample obtained from immunoprecipitation was subjected to western blotting by using ubiquitin antibody so as to carry out comparative analysis.
compound,measurement,setting,value
CCCCCCCCCCCCCC[C@@H]1OC[C@H](N)[C@@H]1O [pachastrissamine],number of surviving cells compared to negative control group,"HaCaT cell; 10 μg/ml, phase-contrast microscope, FIG. 2f",the number of surviving cells was significantly reduced
same,"cell division extent increased by lithium chloride, effect of pachastrissamine",HaCaT cell; pachastrissamine 10 μg/ml + lithium chloride 300 nM,inhibited
same,apoptosis (TUNEL positive) among observed cell nuclei (DAPI stained),HaCaT cell line,most of observed cell nuclei showed apoptosis
same,phosphorylation of AKT after 30 minutes,"AKT; 5 μg/ml phytosphingosine, 30 minutes",reduction of phosphorylation of AKT
same,degree of AKT phosphorylation after 60 minutes,AKT; 60 minutes,increased
same,protein expression level of FoxO3a compared to control group,"FoxO3a [1]; 5 and 10 μg/ml, 24 hours, FIG. 4A",increased
same,"extent of protein expression of FoxO3a, pachastrissamine and PD98059 together","FoxO3a [1]; pachastrissamine together with PD98059, versus each single material, FIG. 4E",it was not found that the extent of protein expression was increased
same,"extent of protein expression of FoxO3a, pachastrissamine and U0126 together","FoxO3a [1]; pachastrissamine together with U0126, versus each single material, FIG. 4E",significantly increased compared to other samples treated with each single material
same,"level of protein expression of FoxO3a, single material","FoxO3a [1]; treated as in Example 3-2, compared to negative control, FIG. 4E",the amount of FoxO3a protein was increased
same,ubiquitination degree of FoxO3a increased by EGF,FoxO3a [2],decreased
